Source: PubChem BioAssay AID248 (DTP/NCI, 2004)
Where “and” joins values, the source holds several entries; their conditions need not be identical. Identical values can stand only once. Toxic doses and inconclusive results are not listed.

Tested on: L1210 leukemia ip in BDF1 mice, survival T/C
Test: NCI In Vivo Anticancer Drug Screen. Data for tumor model L1210 Leukemia (intraperitoneal) in B6D2F1 (BDF1) mice
Conditions: endpoint: mean survival time, higher = longer survival
Procedure, shortened: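 Tumor was transplanted into mice, which were then dosed with test compound or vehicle alone. Survival was recorded for each group, and the treated figure was expressed relative to the control figure.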

[1] = dose: 100.0 mg/kg/injection, schedule: Q01DX009 (ip), vehicle: saline with Tween-80
[2] = dose: 400.0 mg/kg/injection, schedule: Q01DX009 (ip), vehicle: saline with Tween-80
[3] = dose: 100.0 mg/kg/injection, schedule: Q04DX003 (ip), vehicle: saline with Tween-80
[4] = dose: 200.0 mg/kg/injection, schedule: Q04DX003 (ip), vehicle: saline with Tween-80
[5] = dose: 400.0 mg/kg/injection, schedule: Q04DX003 (ip), vehicle: saline with Tween-80
[6] = dose: 25.0 mg/kg/injection, schedule: Q01DX009 (ip), vehicle: saline with Tween-80
[7] = dose: 100.0 mg/kg/injection, schedule: Q04DX003 (ip), vehicle: Klucel (hydroxypropylcellulose) (HPC)
[8] = dose: 200.0 mg/kg/injection, schedule: Q04DX003 (ip), vehicle: Klucel (hydroxypropylcellulose) (HPC)
[9] = dose: 400.0 mg/kg/injection, schedule: Q04DX003 (ip), vehicle: Klucel (hydroxypropylcellulose) (HPC)
[10] = dose: 100.0 mg/kg/injection, schedule: Q04DX003 (ip), vehicle: saline
[11] = dose: 100.0 mg/kg/injection, schedule: Q01DX001 (ip), vehicle: carboxymethylcellulose (CMC)
[12] = dose: 200.0 mg/kg/injection, schedule: Q01DX001 (ip), vehicle: carboxymethylcellulose (CMC)
[13] = dose: 400.0 mg/kg/injection, schedule: Q01DX001 (ip), vehicle: carboxymethylcellulose (CMC)
[14] = dose: 100.0 mg/kg/injection, schedule: Q04DX002 (ip), vehicle: other
[15] = dose: 200.0 mg/kg/injection, schedule: Q04DX002 (ip), vehicle: other
[16] = dose: 50.0 mg/kg/injection, schedule: Q01DX009 (ip), vehicle: saline
[17] = dose: 50.0 mg/kg/injection, schedule: Q04DX003 (ip), vehicle: saline
[18] = dose: 50.0 mg/kg/injection, schedule: Q01DX001 (ip), vehicle: saline
[19] = dose: 100.0 mg/kg/injection, schedule: Q01DX001 (ip), vehicle: saline
[20] = dose: 200.0 mg/kg/injection, schedule: Q01DX001 (ip), vehicle: saline
[21] = dose: 400.0 mg/kg/injection, schedule: Q01DX001 (ip), vehicle: saline

For `Cc1ccc(C)c(CNC(=O)C2CCCCC2C(=O)O)c1` (stereo not given), the T/C [1] was 101 % of control, the T/C (dose: 200.0 mg/kg/injection, schedule: Q01DX009 (ip), vehicle: saline with Tween-80) was 112 % of control and the T/C [2] was 109 % of control.
In the case of `Nc1nc(N)c2cc(CNc3ccc(C(=O)NC(CCCC(=O)O)C(=O)O)cc3)cnc2n1` (stereo not given), the T/C [3] was 158 % of control and 175 % of control, the T/C [4] was 154 % of control and the T/C [5] was 87 % of control.
With `Cc1ccc(C(=O)OCc2ccc3c(c2)OCO3)cc1` the T/C (dose: 222.0 mg/kg/injection, schedule: Q01DX Z (ip), vehicle: methylcellulose (MC)) was 97 % of control, the T/C (dose: 333.0 mg/kg/injection, schedule: Q01DX Z (ip), vehicle: methylcellulose (MC)) was 89 % of control and the T/C (dose: 500.0 mg/kg/injection, schedule: Q01DX Z (ip), vehicle: methylcellulose (MC)) was 89 % of control.
In the case of `Cc1ccc(S(=O)(=O)N(CCCc2c(C)nc(N)[nH]c2=O)Cc2ccc(N)cc2)cc1`, the T/C (dose: 100.0 mg/kg/injection, schedule: Q04DX002 (ip), vehicle: Klucel (hydroxypropylcellulose) (HPC)) was 91 % of control, the T/C (dose: 200.0 mg/kg/injection, schedule: Q04DX002 (ip), vehicle: Klucel (hydroxypropylcellulose) (HPC)) was 88 % of control and the T/C (dose: 400.0 mg/kg/injection, schedule: Q04DX002 (ip), vehicle: Klucel (hydroxypropylcellulose) (HPC)) was 112 % of control.
For `Cc1cc([N+](=O)[O-])ccc1S(=O)(=O)F`, the T/C [3] was 100 % of control.
With `O=C(C=C(C(F)(F)F)C(F)(F)F)c1cccc([N+](=O)[O-])c1` the T/C (dose: 6.25 mg/kg/injection, schedule: Q01DX009 (ip), vehicle: saline with Tween-80) was 101 % of control, the T/C (dose: 12.5 mg/kg/injection, schedule: Q01DX009 (ip), vehicle: saline with Tween-80) was 103 % of control and the T/C [6] was 97 % of control.
With `CC(=O)Nc1ccc(S(=O)(=O)F)cc1[N+](=O)[O-]` the T/C (dose: 100.0 mg/kg/injection, schedule: Q01DX009 (ip), vehicle: saline sonified) was 93 % of control, the T/C [7] was 97 % of control and the T/C (dose: 200.0 mg/kg/injection, schedule: Q01DX009 (ip), vehicle: saline sonified) was 114 % of control. For the same molecule, the T/C [8] was 93 % of control, the T/C (dose: 400.0 mg/kg/injection, schedule: Q01DX009 (ip), vehicle: saline sonified) was 101 % of control and the T/C [9] was 93 % of control.
For `CC(=O)NC(NNC(NC(C)=O)(c1ccccc1)c1ccccc1)(c1ccccc1)c1ccccc1`, the T/C [10] was 105 % of control, the T/C (dose: 200.0 mg/kg/injection, schedule: Q04DX003 (ip), vehicle: saline) was 102 % of control and the T/C (dose: 400.0 mg/kg/injection, schedule: Q04DX003 (ip), vehicle: saline) was 92 % of control.
With `Cc1cccc(NC(=S)N(CCC#N)C2CCCCC2)c1` the T/C [11] was 95 % of control, the T/C [12] was 90 % of control and the T/C [13] was 101 % of control.
In the case of `CCCCCCCCCCCCN=C(N)C(N)=NCCCCCCCCCCCC`, the T/C [14] was 108 % of control, the T/C [15] was 96 % of control and the T/C (dose: 400.0 mg/kg/injection, schedule: Q04DX002 (ip), vehicle: other) was 87 % of control.
In the case of `NC(=O)CC[n+]1ccccc1`, the T/C (dose: 12.5 mg/kg/injection, schedule: Q01DX009 (ip), vehicle: saline) was 97 % of control, the T/C (dose: 25.0 mg/kg/injection, schedule: Q01DX009 (ip), vehicle: saline) was 93 % of control and the T/C [16] was 96 % of control. For the same molecule, the T/C [17] was 105 % of control.
`C=CCCCCCCCCC(=O)O` was tested, and the T/C (dose: 100.0 mg/kg/injection, schedule: Q01DX009 (ip), vehicle: other) was 104 % of control, the T/C [14] was 87 % of control and the T/C (dose: 200.0 mg/kg/injection, schedule: Q01DX009 (ip), vehicle: other) was 93 % of control. For the same molecule, the T/C [15] was 112 % of control and the T/C (dose: 400.0 mg/kg/injection, schedule: Q01DX009 (ip), vehicle: other) was 89 % of control.
With `CCCCNC(=O)C1C2C=CC(CC2)C1C(=O)NCCCC` (stereo not given) the T/C [3] was 104 % of control, the T/C [4] was 100 % of control and the T/C [5] was 96 % of control.
`CCCCCCCCCCCCCCCC(=O)Nc1ccc(C(C)=O)cc1` was tested, and the T/C [7] was 91 % of control, the T/C [8] was 88 % of control and the T/C [9] was 95 % of control.
In the case of `Cc1cc2nnc(C)n2c2ccccc12`, the T/C [18] was 103 % of control and the T/C [19] was 103 % of control.
In the case of `CCC(=O)CC(=O)C(=O)OC`, the T/C (dose: 75.0 mg/kg/injection, schedule: Q01DX001 (ip), vehicle: saline) was 102 % of control, the T/C (dose: 75.0 mg/kg/injection, schedule: Q04DX003 (ip), vehicle: saline) was 105 % of control and the T/C (dose: 150.0 mg/kg/injection, schedule: Q01DX001 (ip), vehicle: saline) was 100 % of control. The T/C (dose: 150.0 mg/kg/injection, schedule: Q04DX003 (ip), vehicle: saline) was 103 % of control, the T/C (dose: 300.0 mg/kg/injection, schedule: Q01DX001 (ip), vehicle: saline) was 104 % of control and the T/C (dose: 300.0 mg/kg/injection, schedule: Q04DX003 (ip), vehicle: saline) was 90 % of control.
In the case of `CCC(=O)c1c(C)[nH]c(C)c1C`, the T/C (dose: 100.0 mg/kg/injection, schedule: Q01DX001 (ip), vehicle: Klucel (hydroxypropylcellulose) (HPC)) was 96 % of control, the T/C (dose: 200.0 mg/kg/injection, schedule: Q01DX001 (ip), vehicle: Klucel (hydroxypropylcellulose) (HPC)) was 95 % of control and the T/C (dose: 400.0 mg/kg/injection, schedule: Q01DX001 (ip), vehicle: Klucel (hydroxypropylcellulose) (HPC)) was 96 % of control.
`O=[N+]([O-])/C=C/c1ccc(O)cc1` was tested, and the T/C (dose: 50.0 mg/kg/injection, schedule: Q01DX015 (ip), vehicle: saline) was 97 % of control and the T/C (dose: 50.0 mg/kg/injection, schedule: Q04DX003 (ip), vehicle: acetone) was 96 % of control.
For `O=c1c(Br)c(Cl)nc2ccccn12`, the T/C [19] was 95 % of control, the T/C [20] was 96 % of control and the T/C [21] was 93 % of control.
In the case of `CCOC(=O)C(NC(=O)c1ccccc1)C(=O)OCC`, the T/C [18] was 96 % of control, the T/C [19] was 96 % of control and the T/C [20] was 96 % of control. The T/C [21] was 96 % of control.
With `CC(O)(C(F)(F)F)C(C)(O)C(F)(F)F` (stereo not given) the T/C (dose: 100.0 mg/kg/injection, schedule: Q04DX002 (ip), vehicle: saline with Tween-80) was 86 % of control and the T/C (dose: 200.0 mg/kg/injection, schedule: Q04DX002 (ip), vehicle: saline with Tween-80) was 91 % of control.
With `COc1ccc(-c2nc(N)ncc2CSC)cc1` the T/C [3] was 101 % of control and the T/C [4] was 86 % of control.
For `O=C1C(=O)c2cc(Cl)ccc2-c2ccc(Cl)cc21`, the T/C (dose: 50.0 mg/kg/injection, schedule: Q01DX001 (ip), vehicle: carboxymethylcellulose (CMC)) was 97 % of control, the T/C [11] was 106 % of control and the T/C [12] was 103 % of control. The T/C [13] was 97 % of control.
In the case of `Cc1cc([N+](=O)[O-])cc([N+](=O)[O-])c1OC(=O)c1ccc(N=C(N)N)cc1`, the T/C (dose: 25.0 mg/kg/injection, schedule: Q04DX003 (ip), vehicle: saline) was 103 % of control, the T/C [16] was 102 % of control and the T/C [17] was 97 % of control. The T/C (dose: 100.0 mg/kg/injection, schedule: Q01DX009 (ip), vehicle: saline) was 94 % of control and 91 % of control and the T/C [10] was 96 % of control and 92 % of control.
`CCN(CC)c1ccc(C(=O)OCCNC2CCCCC2)cc1` was tested, and the T/C (dose: 75.0 mg/kg/injection, schedule: Q01DX001 (ip), vehicle: carboxymethylcellulose (CMC)) was 94 % of control and the T/C (dose: 150.0 mg/kg/injection, schedule: Q01DX001 (ip), vehicle: carboxymethylcellulose (CMC)) was 98 % of control.
`COC(=O)C(Br)(Br)C(=O)OC` was tested, and the T/C (dose: 12.5 mg/kg/injection, schedule: Q04DX002 (ip), vehicle: saline with Tween-80) was 97 % of control, the T/C (dose: 25.0 mg/kg/injection, schedule: Q04DX002 (ip), vehicle: saline with Tween-80) was 105 % of control and the T/C (dose: 50.0 mg/kg/injection, schedule: Q04DX002 (ip), vehicle: saline with Tween-80) was 101 % of control.
With `Clc1ccc(/C=N\N=C\c2ccc(Cl)c(Cl)c2)cc1Cl` the T/C [6] was 90 % of control, the T/C (dose: 50.0 mg/kg/injection, schedule: Q01DX009 (ip), vehicle: saline with Tween-80) was 90 % of control and the T/C [1] was 95 % of control and 90 % of control. The T/C [4] was 90 % of control, the T/C [2] was 97 % of control and the T/C [5] was 91 % of control.
